Results published in patent US11840686B2, “Modulation of prekallikrein (PKK) expression” (Ionis Pharmaceuticals, Inc., priority 2013, dated 2023).
Strand notation (5' to 3'): a small letter for the sugar, then the base; units joined by * are phosphorothioate-linked, units joined directly phosphodiester-linked; [ ] holds rarer units or linkages, { } end groups; capitals alone tell only the bases. e = 2'-O-(2-methoxyethyl) (MOE); [5mC] = 5-methylcytosine; d = 2'-deoxy (DNA)

Tested on: human PKK mRNA
Experiment: Antisense inhibition of human PKK mRNA in HepaRG cells, 5,000 nM (Example 2)
Assay type: cell-based
Conditions: approx. 24 hours
Outline: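 Percent inhibition of PKK mRNA is reported relative to untreated cells, after adjustment for total RNA by RIBOGREEN. Gapmers of 16–20 nucleosides with 2′-MOE wings were delivered at 5,000 nM by electroporation into HepaRG cells and left for roughly 24 hours before RNA isolation.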

[1] = Table 9 experiment, HepaRG cells, 20,000 cells per well, electroporation with 5,000 nM antisense oligonucleotide, PKK mRNA by RT-PCR (RTS3454), relative to untreated control cells
[2] = Table 10 experiment, HepaRG cells, 20,000 cells per well, electroporation with 5,000 nM antisense oligonucleotide, PKK mRNA by RT-PCR (RTS3454), relative to untreated control cells
[3] = HepaRG cells, electroporation, 5,000 nM antisense oligonucleotide, primer probe set RTS3454, relative to untreated control cells, Table 11

| Substance | % inhibition [1] | % inhibition [2] | % inhibition [3] |
| --- | --- | --- | --- |
| 547474 (antisense eT*eG*eT*eA*eG*dA*dA*dT*dA*dT*dT*dT*dT*dG*dG*eA*eT*eT*eT*e[5mC]) [compound 547474] | 51% | 34% |  |
| 547475 (antisense eT*eT*eT*eG*eT*dT*dA*d[5mC]*d[5mC]*dA*dA*dA*dG*dG*dA*eA*eT*eA*eT*eT) [compound 547475] | 44% | 42% |  |
| 547476 (antisense e[5mC]*eA*eT*eT*eT*dG*dT*dT*dA*d[5mC]*d[5mC]*dA*dA*dA*dG*eG*eA*eA*eT*eA) [compound 547476] | 75% | 71% |  |
| 547477 (antisense eT*e[5mC]*eT*eT*e[5mC]*dA*dT*dT*dT*dG*dT*dT*dA*d[5mC]*d[5mC]*eA*eA*eA*eG*eG) [compound 547477] | 74% | 68% |  |
| 547478 (antisense e[5mC]*eA*eT*eT*e[5mC]*dT*dT*d[5mC]*dA*dT*dT*dT*dG*dT*dT*eA*e[5mC]*e[5mC]*eA*eA) [compound 547478] | 85% | 55% |  |
| 547479 (antisense eT*eA*eT*eA*eA*dT*d[5mC]*dT*dT*dG*dA*dT*dA*dT*d[5mC]*eT*eT*eT*eT*e[5mC]) [compound 547479] | 48% | 9% |  |
| 547480 (antisense eT*eT*e[5mC]*eT*eT*dT*dA*dT*dA*dG*d[5mC]*d[5mC]*dA*dG*d[5mC]*eA*e[5mC]*eA*eG*eA) [compound 547480] | 60% | 49% |  |
| 547481 (antisense e[5mC]*e[5mC]*eT*eT*e[5mC]*dT*dT*dT*dA*dT*dA*dG*d[5mC]*d[5mC]*dA*eG*e[5mC]*eA*e[5mC]*eA) [compound 547481] | 71% | 77% |  |
| 547482 (antisense e[5mC]*e[5mC]*e[5mC]*e[5mC]*eT*dT*d[5mC]*dT*dT*dT*dA*dT*dA*dG*d[5mC]*e[5mC]*eA*eG*e[5mC]*eA) [compound 547482] | 90% | 65% |  |
| 547484 (antisense e[5mC]*eT*eA*eA*eG*dG*dG*dA*d[5mC]*d[5mC]*dA*d[5mC]*d[5mC]*dT*dG*eA*eA*eT*e[5mC]*eT) [compound 547484] | 69% | 64% |  |
| 547485 (antisense e[5mC]*eA*eA*eA*e[5mC]*dT*dA*dA*dG*dG*dG*dA*d[5mC]*d[5mC]*dA*e[5mC]*e[5mC]*eT*eG*eA) [compound 547485] | 49% | 66% |  |
| 547486 (antisense eT*eG*e[5mC]*eA*eA*dA*d[5mC]*dT*dA*dA*dG*dG*dG*dA*d[5mC]*e[5mC]*eA*e[5mC]*e[5mC]*eT) [compound 547486] | 89% | 78% |  |
| 547487 (antisense eT*eG*eT*eG*eT*dT*dT*dG*d[5mC]*dA*dA*dA*d[5mC]*dT*dA*eA*eG*eG*eG*eA) [compound 547487] | 72% | 61% |  |
| 547488 (antisense eA*e[5mC]*eA*e[5mC]*e[5mC]*dA*dG*dG*dT*dT*dG*d[5mC]*dT*d[5mC]*d[5mC]*e[5mC]*eT*eG*e[5mC]*eG) [compound 547488] | 71% | 72% |  |
| 547489 (antisense eA*eG*eA*e[5mC]*eA*d[5mC]*d[5mC]*dA*dG*dG*dT*dT*dG*d[5mC]*dT*e[5mC]*e[5mC]*e[5mC]*eT*eG) [compound 547489] |  |  | 34% |
| 547490 (antisense eG*eT*eA*eG*eA*d[5mC]*dA*d[5mC]*d[5mC]*dA*dG*dG*dT*dT*dG*e[5mC]*eT*e[5mC]*e[5mC]*e[5mC]) [compound 547490] |  |  | 55% |
| 547491 (antisense e[5mC]*eA*eT*eG*eT*dA*d[5mC]*dT*d[5mC]*dA*dG*d[5mC]*dG*dA*d[5mC]*eT*eT*eT*eG*eG) [compound 547491] |  |  | 47% |
| 547492 (antisense e[5mC]*eA*eG*eT*e[5mC]*d[5mC]*dA*dT*dG*dT*dA*d[5mC]*dT*d[5mC]*dA*eG*e[5mC]*eG*eA*e[5mC]) [compound 547492] |  |  | 62% |
| 547494 (antisense eT*eG*eG*eT*eG*dA*d[5mC]*dT*dG*d[5mC]*dA*dT*d[5mC]*dT*dG*eA*eG*e[5mC]*eT*eT) [compound 547494] |  |  | 70% |
| 547495 (antisense eG*e[5mC]*eT*eG*eG*dT*dG*dA*d[5mC]*dT*dG*d[5mC]*dA*dT*d[5mC]*eT*eG*eA*eG*e[5mC]) [compound 547495] |  |  | 61% |
| 547496 (antisense eA*eT*eG*e[5mC]*eT*dG*dG*dT*dG*dA*d[5mC]*dT*dG*d[5mC]*dA*eT*e[5mC]*eT*eG*eA) [compound 547496] |  |  | 80% |
| 547497 (antisense eA*e[5mC]*eT*eG*e[5mC]*dT*dT*d[5mC]*dT*d[5mC]*dA*dT*dG*d[5mC]*dT*eG*eG*eT*eG*eA) [compound 547497] |  |  | 68% |
| 547498 (antisense e[5mC]*eT*eG*eG*eA*d[5mC]*dT*dG*d[5mC]*dT*dT*d[5mC]*dT*d[5mC]*dA*eT*eG*e[5mC]*eT*eG) [compound 547498] |  |  | 44% |

| Substance | % inhibition [1] | % inhibition [2] | % inhibition [3] |
| --- | --- | --- | --- |
| 547499 (antisense e[5mC]*eT*e[5mC]*eT*eG*dG*dA*d[5mC]*dT*dG*d[5mC]*dT*dT*d[5mC]*dT*e[5mC]*eA*eT*eG*e[5mC]) [compound 547499] |  |  | 65% |
| 547500 (antisense e[5mC]*e[5mC]*eT*eA*eG*dA*d[5mC]*dT*d[5mC]*dT*dG*dG*dA*d[5mC]*dT*eG*e[5mC]*eT*eT*e[5mC]) [compound 547500] |  |  | 65% |
| 547501 (antisense eA*eT*eT*eG*e[5mC]*d[5mC]*dT*dA*dG*dA*d[5mC]*dT*d[5mC]*dT*dG*eG*eA*e[5mC]*eT*eG) [compound 547501] |  |  | 55% |
| 547502 (antisense eT*e[5mC]*eA*eG*eG*dT*dT*dG*dT*dA*dA*dA*dA*dA*dT*eT*eG*e[5mC]*e[5mC]*eT) [compound 547502] |  |  | 64% |
| 547503 (antisense eA*e[5mC]*eT*e[5mC]*eA*dG*dG*dT*dT*dG*dT*dA*dA*dA*dA*eA*eT*eT*eG*e[5mC]) [compound 547503] |  |  | 66% |
| 547504 (antisense eG*eA*eA*e[5mC]*eT*d[5mC]*dA*dG*dG*dT*dT*dG*dT*dA*dA*eA*eA*eA*eT*eT) [compound 547504] |  |  | 37% |
| 547505 (antisense eG*eA*e[5mC]*eT*eT*dG*dA*dA*d[5mC]*dT*d[5mC]*dA*dG*dG*dT*eT*eG*eT*eA*eA) [compound 547505] |  |  | 69% |
| 547506 (antisense eA*eG*eG*e[5mC]*eT*d[5mC]*dA*dG*dA*dA*dT*dT*dT*dG*dA*e[5mC]*eT*eT*eG*eA) [compound 547506] |  |  | 78% |
| 547507 (antisense e[5mC]*eA*eG*eG*e[5mC]*dT*d[5mC]*dA*dG*dA*dA*dT*dT*dT*dG*eA*e[5mC]*eT*eT*eG) [compound 547507] |  |  | 56% |
| 547508 (antisense e[5mC]*e[5mC]*e[5mC]*e[5mC]*eA*dG*dG*d[5mC]*dT*d[5mC]*dA*dG*dA*dA*dT*eT*eT*eG*eA*e[5mC]) [compound 547508] |  |  | 69% |
| 547509 (antisense e[5mC]*e[5mC]*e[5mC]*e[5mC]*e[5mC]*d[5mC]*dA*dG*dG*d[5mC]*dT*d[5mC]*dA*dG*dA*eA*eT*eT*eT*eG) [compound 547509] |  |  | 58% |
| 547510 (antisense eA*eT*eG*eA*eG*dG*dA*d[5mC]*d[5mC]*d[5mC]*d[5mC]*d[5mC]*d[5mC]*dA*dG*eG*e[5mC]*eT*e[5mC]*eA) [compound 547510] |  |  | 40% |
| 547511 (antisense eG*eA*eT*eG*eA*dG*dG*dA*d[5mC]*d[5mC]*d[5mC]*d[5mC]*d[5mC]*d[5mC]*dA*eG*eG*e[5mC]*eT*e[5mC]) [compound 547511] |  |  | 53% |
| 547512 (antisense eG*e[5mC]*eA*eG*eA*dT*dG*dA*dG*dG*dA*d[5mC]*d[5mC]*d[5mC]*d[5mC]*e[5mC]*e[5mC]*eA*eG*eG) [compound 547512] |  |  | 74% |
| 547513 (antisense eT*eG*e[5mC]*eA*eG*dA*dT*dG*dA*dG*dG*dA*d[5mC]*d[5mC]*d[5mC]*e[5mC]*e[5mC]*e[5mC]*eA*eG) [compound 547513] |  |  | 72% |
| 547515 (antisense eA*eG*eA*eA*eG*dA*dT*dG*d[5mC]*d[5mC]*dA*d[5mC]*dT*d[5mC]*dT*e[5mC]*e[5mC]*eA*eT*eG) [compound 547515] |  |  | 58% |
| 547516 (antisense eG*eA*eT*eG*e[5mC]*dA*dA*dA*dG*dA*dA*dG*dA*dT*dG*e[5mC]*e[5mC]*eA*e[5mC]*eT) [compound 547516] |  |  | 48% |
| 547517 (antisense eT*eA*eG*eG*eA*dT*dG*d[5mC]*dA*dA*dA*dG*dA*dA*dG*eA*eT*eG*e[5mC]*e[5mC]) [compound 547517] |  |  | 57% |
| 547518 (antisense eT*e[5mC]*e[5mC]*eT*eT*dA*dG*dG*dA*dT*dG*d[5mC]*dA*dA*dA*eG*eA*eA*eG*eA) [compound 547518] |  |  | 51% |
| 547519 (antisense e[5mC]*e[5mC]*eA*eG*eA*d[5mC]*dA*dT*dT*dG*dT*d[5mC]*d[5mC]*dT*d[5mC]*eA*eG*e[5mC]*eA*eG) [compound 547519] |  |  | 76% |
| 547521 (antisense e[5mC]*eT*eT*e[5mC]*eA*dG*d[5mC]*d[5mC]*dA*dG*dA*d[5mC]*dA*dT*dT*eG*eT*e[5mC]*e[5mC]*eT) [compound 547521] |  |  | 58% |
| 547522 (antisense eG*eA*eA*eA*eG*d[5mC]*dG*dG*dG*d[5mC]*dT*dT*d[5mC]*dA*dG*e[5mC]*e[5mC]*eA*eG*eA) [compound 547522] |  |  | 73% |
